Results on 3 substances are retold here after patent publication US20080039410A1, “Inositol 1,4,5-Trisphosphate Receptor Mutants and Uses Thereof” (priority 2004, published 2008).

In one test the target is T1, S2+ InsP3R-1 (Rattus norvegicus, UniProt P29994, S1756E).
T1 construct: The entire receptor DNA was excised from the plasmid using EcoRI and ligated into the plasmid MXT-1; expressed in transfected cells; host or cells: DT-40 3ko (chicken B cells lacking all InsP3R), co-transfected with m3 muscarinic receptor and HcRed
T1 sequence (P29994 1-2749 isoform P29994-3 S1755E): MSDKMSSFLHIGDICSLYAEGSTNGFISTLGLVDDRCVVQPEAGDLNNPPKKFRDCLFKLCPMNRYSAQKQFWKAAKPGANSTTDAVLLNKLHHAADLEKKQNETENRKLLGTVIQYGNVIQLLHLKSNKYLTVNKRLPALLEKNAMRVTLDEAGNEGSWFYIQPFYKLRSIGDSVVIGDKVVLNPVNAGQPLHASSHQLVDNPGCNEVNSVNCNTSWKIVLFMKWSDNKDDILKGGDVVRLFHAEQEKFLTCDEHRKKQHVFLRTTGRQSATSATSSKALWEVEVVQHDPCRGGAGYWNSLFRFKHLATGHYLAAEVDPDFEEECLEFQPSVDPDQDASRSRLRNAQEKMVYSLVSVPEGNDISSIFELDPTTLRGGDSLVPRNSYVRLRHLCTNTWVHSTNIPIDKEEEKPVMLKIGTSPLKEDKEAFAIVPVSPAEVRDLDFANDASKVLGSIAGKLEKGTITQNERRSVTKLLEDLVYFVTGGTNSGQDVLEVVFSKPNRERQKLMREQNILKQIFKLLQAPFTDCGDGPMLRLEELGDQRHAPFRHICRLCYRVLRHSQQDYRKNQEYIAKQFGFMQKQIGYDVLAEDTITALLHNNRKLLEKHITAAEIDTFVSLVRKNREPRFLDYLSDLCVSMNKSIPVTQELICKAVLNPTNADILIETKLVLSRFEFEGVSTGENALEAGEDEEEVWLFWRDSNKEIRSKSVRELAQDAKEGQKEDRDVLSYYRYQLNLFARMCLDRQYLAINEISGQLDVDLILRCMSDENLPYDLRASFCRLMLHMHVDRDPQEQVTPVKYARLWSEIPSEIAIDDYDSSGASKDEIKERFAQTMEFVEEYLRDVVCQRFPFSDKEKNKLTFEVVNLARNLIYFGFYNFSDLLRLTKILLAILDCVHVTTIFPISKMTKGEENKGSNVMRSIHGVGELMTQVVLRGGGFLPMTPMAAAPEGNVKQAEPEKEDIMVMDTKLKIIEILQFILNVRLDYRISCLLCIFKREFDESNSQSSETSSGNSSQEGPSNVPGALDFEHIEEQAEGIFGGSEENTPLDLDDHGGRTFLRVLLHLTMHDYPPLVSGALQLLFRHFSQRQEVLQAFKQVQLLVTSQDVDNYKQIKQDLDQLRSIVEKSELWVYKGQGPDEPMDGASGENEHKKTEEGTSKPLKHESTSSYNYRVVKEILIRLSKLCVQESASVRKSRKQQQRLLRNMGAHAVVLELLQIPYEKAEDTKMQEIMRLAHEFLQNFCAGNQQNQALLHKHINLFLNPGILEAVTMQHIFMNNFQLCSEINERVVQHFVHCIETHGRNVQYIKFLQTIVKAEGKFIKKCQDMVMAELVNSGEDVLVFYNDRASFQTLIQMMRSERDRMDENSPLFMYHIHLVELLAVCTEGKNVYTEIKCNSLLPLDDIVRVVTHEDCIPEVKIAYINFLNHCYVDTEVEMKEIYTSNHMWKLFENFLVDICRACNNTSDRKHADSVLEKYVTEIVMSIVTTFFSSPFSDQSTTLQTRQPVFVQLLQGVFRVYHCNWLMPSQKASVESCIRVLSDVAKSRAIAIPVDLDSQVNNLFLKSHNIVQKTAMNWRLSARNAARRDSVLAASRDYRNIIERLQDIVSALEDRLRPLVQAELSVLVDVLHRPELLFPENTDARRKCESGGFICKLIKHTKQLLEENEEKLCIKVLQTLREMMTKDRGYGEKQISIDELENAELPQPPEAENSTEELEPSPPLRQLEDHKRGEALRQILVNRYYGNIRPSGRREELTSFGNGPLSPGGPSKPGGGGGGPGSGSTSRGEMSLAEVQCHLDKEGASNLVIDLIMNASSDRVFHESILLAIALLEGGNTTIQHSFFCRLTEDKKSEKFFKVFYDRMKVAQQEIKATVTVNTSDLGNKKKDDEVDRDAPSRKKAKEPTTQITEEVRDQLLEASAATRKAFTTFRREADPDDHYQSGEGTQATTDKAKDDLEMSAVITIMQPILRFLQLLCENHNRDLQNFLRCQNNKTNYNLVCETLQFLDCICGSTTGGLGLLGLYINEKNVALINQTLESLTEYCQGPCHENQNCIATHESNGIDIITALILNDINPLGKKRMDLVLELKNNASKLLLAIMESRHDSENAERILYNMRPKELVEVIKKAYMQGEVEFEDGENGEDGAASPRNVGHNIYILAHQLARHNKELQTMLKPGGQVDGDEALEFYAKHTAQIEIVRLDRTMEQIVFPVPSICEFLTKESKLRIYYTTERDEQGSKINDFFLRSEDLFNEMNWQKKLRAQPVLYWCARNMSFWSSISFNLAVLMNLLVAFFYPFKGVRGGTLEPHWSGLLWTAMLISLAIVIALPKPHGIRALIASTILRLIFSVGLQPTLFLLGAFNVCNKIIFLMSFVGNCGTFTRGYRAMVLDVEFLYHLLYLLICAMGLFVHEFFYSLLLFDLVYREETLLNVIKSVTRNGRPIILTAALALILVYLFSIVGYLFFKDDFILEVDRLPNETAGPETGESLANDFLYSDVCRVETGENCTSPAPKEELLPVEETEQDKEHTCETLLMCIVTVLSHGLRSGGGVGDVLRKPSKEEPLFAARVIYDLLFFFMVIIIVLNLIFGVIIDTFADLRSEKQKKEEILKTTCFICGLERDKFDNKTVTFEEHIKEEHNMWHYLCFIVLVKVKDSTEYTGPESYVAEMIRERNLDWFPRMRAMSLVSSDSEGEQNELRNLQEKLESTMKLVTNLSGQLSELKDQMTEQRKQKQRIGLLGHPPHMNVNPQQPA
The test can be described thus: Flash photolysis of caged InsP3 (ci-IP3/PM), Fluo-4, DT-40 3ko cells expressing S2+ InsP3R-1 constructs. The following applies: UV flash 0.5-5 ms. In kind it is cell-based. The method, then:
Transfected cells were simultaneously loaded by incubation with the visible wavelength indicator Fluo-4 and a cell permeable form of caged-inositol trisphosphate (ciIP3/PM) for 30 min. Ci-IP3/PM is a homologue of cm-IP3/PM [45] The 2- and 3-hydroxyls of the inositol ring were protected by an isopropylidene group in ci-IP3/PM, and were protected by a methoxymethylene group in cm-IP3/PM. Like cm-IP3/PM, ci-IP3/PM diffuses across cell membranes and induces internal calcium release upon photo-uncaging. A further period of approximately 30 min was allowed for de-esterification of both dye and cage. Cells were illuminated at 488±10 nm and fluorescence collected through a 525±25 nm band pass filter and captured using the Till Photonics imaging suite. […] Photolytic release was performed as previously described using a pulsed Xenon arc lamp (Till Photonics). […]
Transfected cells were simultaneously loaded with the visible wavelength indicator Fluo-4 and a cell-permeable form of caged inositol trisphosphate (ci-IP3/PM) for 30 min. ci-IP3/PM is a homologue of cm-IP3/PM. […] Cells were illuminated at 488±10 nm and fluorescence collected through a 525±25-nm bandpass filter and captured using the Till Photonics imaging suite. […]

The test system of test [1] is S2− InsP3R-1. The test can be described thus: Flash photolysis of caged InsP3 (ci-IP3/PM), Fluo-4, Dt-40 3ko cells expressing S2− InsP3R-1 constructs. In kind it is cell-based, rat. The method, then: Transfected cells were simultaneously loaded with the visible wavelength indicator Fluo-4 and a cell-permeable form of caged inositol trisphosphate (ci-IP3/PM) for 30 min. ci-IP3/PM is a homologue of cm-IP3/PM. The 2- and 3-hydroxyls of the inositol ring are protected by an isopropylidene group in ci-IP3/PM and are protected by a methoxymethylene group in cm-IP3/PM (45). Like cm-IP3/PM, ci- IP3/PM diffuses across cell membranes, and the PM group is hydrolyzed by cellular esterases, and Ca^2+ release can be induced upon photouncaging as i-IP3 is liberated from the cage and acts in a similar fashion to InSP3 at InsP3R^2. A further period of 30 min was allowed for de-esterification of both dye and cage. Cells were illuminated at 488±10 nm and fluorescence collected through a 525±25-nm bandpass filter and captured using the Till Photonics imaging suite. […] Photolytic release was performed as described previously by using a pulsed xenon arc lamp (Till Photonics). A high intensity (0.5-5 ms duration; 80 J) discharge of UV light (360±7.5 nm) was reflected onto the plane of focus by using a DM400 dichroic mirror and Nikon 40× oil immersion objective, 1.3 NA.
To investigate the consequences of InsP3R-1 phosphorylation, the Ca^2+ release properties of phosphomimetic mutations in the functionally important sites in both S2+ and S2− InsP3R-1 was analyzed in Dt-40 3ko cells. This cell line provides the only known InsP3R null background (42, 43). In initial experiments, a comparison was made between the sensitivity of Ca^2+ release by InsP3R-1 phosphomimetic mutations versus nonphosphorylatable alanine mutations at the sites. Dt-40 3ko cells were transfected with DNA encoding HcRed to facilitate identification of transfected cells and either S2− S1589E/S1755E InsP3R-1 (S2−EE) or S2− S1589A/S1755A (S2−AA). Ca^2+ release was monitored following flash photolysis of ci-IP3, a cell-permeable form of caged InSP3. This experimental paradigm provides a relatively direct assessment of the effects of InsP3R-1 phosphorylation on the Ca^2+ release process. […]
Target sequence in this assay (P29994 1-604 limits assumed): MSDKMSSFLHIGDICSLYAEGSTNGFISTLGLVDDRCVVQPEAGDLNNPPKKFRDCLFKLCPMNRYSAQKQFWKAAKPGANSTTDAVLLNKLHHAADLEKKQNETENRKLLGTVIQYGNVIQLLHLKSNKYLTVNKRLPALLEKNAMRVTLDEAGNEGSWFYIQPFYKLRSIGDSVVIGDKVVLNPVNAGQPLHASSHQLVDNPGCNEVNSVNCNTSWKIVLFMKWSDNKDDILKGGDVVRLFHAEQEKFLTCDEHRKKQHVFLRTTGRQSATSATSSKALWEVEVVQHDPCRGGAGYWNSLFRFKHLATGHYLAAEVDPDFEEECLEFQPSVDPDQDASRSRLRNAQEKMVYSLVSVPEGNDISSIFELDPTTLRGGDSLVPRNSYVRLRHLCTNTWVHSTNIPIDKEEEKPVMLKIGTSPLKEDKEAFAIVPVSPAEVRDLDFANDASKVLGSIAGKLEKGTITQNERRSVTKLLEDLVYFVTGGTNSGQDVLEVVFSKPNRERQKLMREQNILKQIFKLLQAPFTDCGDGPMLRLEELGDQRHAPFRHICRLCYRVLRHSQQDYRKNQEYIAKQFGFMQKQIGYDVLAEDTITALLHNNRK

Test [2] concerns S2− InsP3R-1. Kind of test: Potentiation of CCh-induced Ca2+ release after PKA activation (forskolin), S2− InsP3R-1 constructs in DT-40 3ko cells. Type of test: cell-based, rat. The following applies: low affinity indicator Fura-2-FF.

“Also recorded” adds a separate entry of the source.

For “S2+SE: phosphomimetic S2+ InsP3R-1, long splice variant of S1755E”, the “response to photolysis of ci-IP3 versus nonphosphorylatable mutant” value in the test with S2+ InsP3R-1 is “more robustly; also recorded: more sensitive than S2+SA”.

For the substance “S2−EE: phosphomimetic S1589E/S1755E mutant of the short splice variant”, the “cells showing Ca^2+ release (>0.05% ΔF/F)” value in the test on S2− InsP3R-1 [1] (0.5 ms UV discharge) was around 60%. Besides, the “cells showing Ca^2+ release” value in the test with S2− InsP3R-1 [1] (1.25 ms UV flash) is listed as “all cells”. Further, the “response to photolysis of ci-IP3 versus nonphosphorylatable mutant” value in the test on S2− InsP3R-1 [1] (UV flash 0.5-5 ms) is given as “lower threshold of UV light exposure”.

With “S2−WT: wild-type rat type-1 InsP3 receptor, peripheral short S2− splice variant (SEQ ID NO: 17)”, in the test on S2− InsP3R-1 [2], the “fold potentiation of CCh-induced Ca^2+ release by forskolin” value is listed as around 4.5 fold.
